Test results taken from paper PMC12195250, “Synthesis, Biological Evaluation, Molecular Dynamics, and QM-MM Calculation of Spiro-Acridine Derivatives Against Leishmaniasis” (Microorganisms, 2025).
Values after ≈ are worked out from the molar mass of the structure shown. Read-outs that look alike come from different tables or passages of the source.

Experiments:
[1] = test system: human red blood peripheral cells (O+); assay: Hemocompatibility (hemolysis) in red blood cells; assay type: cell-based; details: 1 h at 37 °C
Description: The hemocompatibility of the spiro-acridine derivatives was determined using human red blood peripheral cells (O+) from healthy adults. The erythrocytes were diluted in phosphate-buffered saline (PBS) to a concentration of 5% in an 80 µL suspension and subsequently incubated with 20 µL of different concentrations of spiro-acridine derivatives and Amphotericin B® (400, 200, 100, 50, 25, 12,5, 6,25 and 3,12 μg/mL). Afterward, the samples were incubated for 1 h at 37 °C in a B.O.D incubator, and the reaction was stopped by adding 200 μL of PBS (1.5 mM KH2PO4, 8.1 mM Na2HPO4, 136.9 mM NaCl, and 2.6 mM KCl, pH 7.2). The samples were centrifuged at 2000 rpm for 10 min, at room temperature. The supernatants were collected and subjected to spectrophotometry using a spectrophotometer (model Biosystems ELx800, Curitiba, PR, Brazil) at 540 nm. The hemolysis percentage was determined as [(Abssam − Abscon)/(Abstot − Abscon) × 100], where Abssam refers to the absorbance of the sample, Abscon to the absorbance of the blank control (without compounds), and Abstot to the absorbance of total hemolysis (obtained by replacing the sample solution with an equal volume of Milli-Q water). The results were expressed as average hemolytic concentration (HC50), considering the positive control as 100% hemolysis.

[2] = test system: L. infantum promastigotes (Strain MHOM/BR/70/BH46); assay: Anti-promastigote effect, Neubauer chamber counting; assay type: cell-based, Leishmania infantum; details: 72 h incubation, read-out: L. infantum IC50PRO
Description: (§1) The promastigote cultures of L. infantum (Strain MHOM/BR/70/BH46) and L. amazonensis (Strain MHOM/BR/PH8) were kept in Schneider medium (Sigma-Aldrich, St. Louis, MO, USA) supplemented with 20% fetal bovine serum (FBS) and 1% streptomycin/penicillin in a B.O.D. incubator (J. Prolab, model JP. 100 LBCM/CPAM) at 26 °C. The promastigote strains were used in the exponential growth phase in all stages for experimental purposes.
(§2) The Neubauer chamber method was used to assess the inhibitory concentrations of the synthesized spiro-acridines capable of eliminating 50% of the promastigotes in cultures of L. amazonensis and L. infantum (IC50) strains. Promastigotes from both species were collected, counted, and diluted in Schneider’s medium (Sigma-Aldrich, St. Louis, MO, USA) supplemented with 20% fetal bovine serum (FBS) at a final concentration of 1 × 10^6 cells/mL. The evaluated promastigotes were then exposed to different concentrations of the tested compounds (10, 5, 2.5, 1.25, and 0.625 μg/mL). The positive control used the commercial drug Amphotericin B®, while the negative control consisted of promastigotes incubated in Schneider’s medium alone. After 72 h of incubation at 25 °C, culture growth was observed by counting the viable cells using a Neubauer chamber and calculated using the following Equation (1): No. Leishmania/mL = No. of cells counted × No. of Neubauer chamber(1) quadrants × the dilution used × 10^4 (Neubauer chamber correction factor)
(§3) The concentration parameter that inhibits 50% of parasite growth (IC50) was used to estimate the growth inhibition of the promastigote species of Leishmania sp. Thus, IC50 was determined by linear regression analysis with SPSS 8.0 software for Windows. Each test was performed in two independent experiments, with different cultures and in technical triplicate.

[3] = test system: L. amazonensis promastigotes (Strain MHOM/BR/PH8); assay: as above; assay type: cell-based, Leishmania amazonensis; details: 72 h incubation, read-out: L. amazonensis IC50PRO
Description: as §1, §2, §3

[4] = test system: L. infantum promastigote forms; parameters: method as in PMID 34311084; details: cited from earlier work
[5] = Cytotoxic effect in J774 macrophage cultures, MTT; assay type: cell-based; details: mouse, J774A.1 macrophages, read-out: CC50 (50% cytotoxic concentration in J774 macrophage)
Description: J774A.1 macrophages (ATCC TIB-67) were kept cryopreserved in a Falcon tube containing 5 mL of DMEM (Dulbecco’s modified Eagle medium) culture medium (Gibco®), supplemented with 10% inactivated fetal bovine serum, 1% non-essential amino acids, and 1% gentamicin sulfate. The tube was centrifuged at 200 rpm for 10 min. Afterward, the supernatant was discarded, and the cells were resuspended in the culture medium and transferred to a culture bottle kept in an incubator at 37 °C with 5% CO2. The assays were carried out in triplicate using a 96-well plate to evaluate the cytotoxic effect of the selected spiro-acridine compounds on J774 macrophage cultures. The compounds were diluted and seeded at predetermined concentrations (32, 16, 8, 4, and 2 μg/mL), parallel to the distribution of 1.0 × 10^5 J774 macrophages per well. The plate was incubated for two hours in a 5% CO2 incubator at 37 °C. Only the cells were incubated in the negative control without the tested molecules. In contrast, the positive control was performed by incubating the macrophages with the commercial drug Amphotericin B®. Later, 10 μL of the MTT reagent was added per well, and the cultures were re-incubated for 4 h. Finally, 50 μL of DMSO was added to each well, and the absorbance was read on a SpectraMAX GeminiXS plate spectrophotometer (Molecular Devices LLC, San Jose, CA, USA) at a wavelength of 570 nm. […]

[6] = test system: L. amazonensis axenic amastigotes; assay: Anti-amastigote effect on axenic amastigotes, MTT; assay type: cell-based, Leishmania amazonensis
Description: The amastigote forms of L. amazonensis were maintained under cryopreservation until they were transferred to an NNN medium (Novy–MacNeal–Nicolle) and incubated at 26 °C until the parasites reached the log growth phase. Subsequently, the suspension was transferred to Schneider culture medium (Sigma-Aldrich, St. Louis, MO, USA), supplemented with 20% inactivated fetal bovine serum and 0.2% gentamicin sulfate at 26 °C, causing the parasites to return to the log growth phase. The cultures were then maintained at 37 °C, producing a growth curve and the formation of the axenic amastigote strains.
The concentrations of the compounds AMTAC-02 and ACMD-03 capable of eliminating 50% of the cells in the cultures of L. amazonensis amastigotes (IC50) were determined using the MTT [3-(4,5-dimethylthiazol-2-yl)-2,5-diphenyltetrazolium bromide] (Sigma-Aldrich) reagent. In a 96-well plate, the assay was initiated by diluting both compounds to concentrations of 2, 4, 8, 16, and 32 μg/mL and 2.0 × 10^5 axenic amastigotes per well. The plates were incubated at 37 °C for 24 h. Then, 10 μL of MTT was added per well, and the cultures were re-incubated for 4 h. Subsequently, 50 μL of dimethyl sulfoxide was added to each well to solubilize the formazan crystals formed. The absorbances were measured using a SpectraMAX GeminiXS plate spectrophotometer (Molecular Devices LLC) at a wavelength of 570 nm. The negative control consisted of untreated cells, while the positive control was assessed by incubating the axenic amastigotes with the reference drug Amphotericin B® [13].

[7] = test system: L. amazonensis promastigotes; parameters: method as in PMID 33765552; details: cited from earlier work
[8] = test system: L. brasiliensis axenic amastigotes; parameters: method as in PMID 33168414; details: cited from earlier work
[9] = test system: L. brasiliensis promastigotes; parameters: method as in PMID 33168414; details: cited from earlier work

Compound: N#CC1=CC2(c3ccccc3Nc3ccccc32)N(c2ccccc2)C1=O [ACMD-01, (E)5′-oxo-1′-phenyl-1′, 5′-dihydro-10H-spiro{acridine-9,2′-pyrrole]-4′-carbonitrile]
- HC50 (concentration capable of promoting 50% hemolysis) [1]: >400 µM
- IC50 ([2]; Leishmania infantum): 3.9 µM

Compound: COc1ccc(N2C(=O)C(C#N)=CC23c2ccccc2Nc2ccccc23)cc1 [ACMD-06, (E)1′-(4-methoxyphenyl)-5′-oxo-1′, 5′-dihydro-10H-spiro{acridine-9,2′-pyrrole]-4′-carbonitrile]
- HC50 (concentration capable of promoting 50% hemolysis) [1]: >400 µM
- IC50 [2]: 3.5 µM
- IC50 [3]: 235 µM

Compound: N#CC1=CC2(c3ccccc3Nc3ccccc32)N(/N=C/c2ccccc2)C1=O [AMTAC-01, (E)-1′-(benzylideneamino)-5′-oxo-1′,5′-dihydro-10H-spiro[acridine-9,2′-pyrrole]-4′-carbonitrile]
- HC50 (concentration capable of promoting 50% hemolysis) [1]: >400 µM
- IC50 against the promastigote forms [4]: 2.039 µg/mL (≈ 5.42 µM)
- IC50 ([2]; Leishmania infantum): 6.27 µM
- IC50 ([3]; Leishmania amazonensis): 1.23 µM

Compound: N#CC1=CC2(c3ccccc3Nc3ccccc32)N(/N=C/c2ccc(Cl)cc2)C1=O [AMTAC-06, (E)1-(4-chlorobenzylideneamino)-5-oxo-1,5-dihydro-10H-spiro[acridine-9,2-pyrrole]-4-carbonitrile]
- HC50 (concentration capable of promoting 50% hemolysis) [1]: >400 µM
- IC50 [2]: 13.8 µM
- IC50 [3]: 0.75 µM

Compound: C[C@@H]1[C@H](O)[C@@H](C)/C=C/C=C/C=C/C=C/C=C/C=C/C=C/[C@H](O[C@@H]2O[C@H](C)[C@@H](O)[C@H](N)[C@@H]2O)C[C@@H]2O[C@](O)(C[C@@H](O)C[C@@H](O)[C@H](O)CC[C@@H](O)C[C@@H](O)CC(=O)O[C@H]1C)C[C@H](O)[C@H]2C(=O)O [ANFO B, Amphotericin B, reference compound]
- HC50 (concentration capable of promoting 50% hemolysis) [1]: 24.25 µM
- IC50 ([2]; Leishmania infantum): 0.05 µM
- IC50 ([3]; Leishmania amazonensis): 1.53 µM
- CC50 at 2 h [5]: 3.09 µM
- SI (selectivity index) ([6]; J774 macrophage CC50 versus L. amazonensis axenic amastigote IC50AMA): 2.8
- IC50 ([6]; Leishmania amazonensis, 24 h, L. amazonensis axenic amastigotes, MTT): 1.08 µM

Compound: CC1=CC(=O)[C@H]2C(C)(C)CCC[C@]2(C)[C@@]1(O)CCc1ccoc1 [SOL, solidagenone]
- IC50 [7]: 34.5 µM

Compound: cordiaquinone E [CORe]
- IC50 [8]: 2.89 ± 0.11 µM
- IC50 [9]: 4.5 ± 0.3 µM
